Test results as given in patent US7238701B2, “Substituted tetrahydrobenzothienopyrimidinamine compounds useful for treating hyper-proliferative disorders” (Bayer Pharmaceuticals Corporation, priority 2003, dated 2007).
pIC50: −log10 of the molar value.

Legend:
[1] = system: BT474 (human breast carcinoma); test: In vitro tumor cell proliferation assay (Cell Titer-Glo luminescent cell viability), BT474 cells; format: cell-based; conditions: BT-474, 72 hours drug exposure, 10% Fetal Bovine Serum, ATP luminescence readout, read-out: IC50 (50% inhibition of cell proliferation)
Outline: (§1)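 ATP luminescence (CellTiter-Glo) measured proliferation after 72 h compound exposure at 37 °C, giving IC50 values. Serial dilutions spanning 64 pM–100 μM in 0.1% DMSO were applied one day after plating 2.5×10^3 cells/well in RPMI plus 10% fetal bovine serum.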

[2] = system: A431cells (human epidermoid carcinoma); test: In vitro tumor cell proliferation assay (Cell Titer-Glo luminescent cell viability), A431 cells; format: cell-based; conditions: A-431, 72 h, 72 hours drug exposure, 10% Fetal Bovine Serum, ATP luminescence readout, read-out: IC50 (50% inhibition of cell proliferation)
Outline: as §1

Structure (SMILES)	pIC50 [1]	pIC50 [2]
Cc1ccc(Oc2ccc(Nc3ncnc4sc5c(c34)CCC(CCN3CCC(O)C3)C5)cc2C)cn1 (centres unmarked) [Example 233, 1-{2-[4-({3-methyl-4-[(6-methylpyridin-3-yl)oxy]phenyl}amino)-5,6,7,8-tetrahydro[1]benzothieno[2,3-d]pyrimidin-7-yl]ethyl}pyrrolidin-3-ol]	> 5.30	> 4.30
Cc1ccc(Oc2ccc(Nc3ncnc4sc5c(c34)CCC(CCN3CCCC3C)C5)cc2C)cn1 (centres unmarked) [Example 234, N-{3-methyl-4-[(6-methylpyridin-3-yl)oxy]phenyl}-7-[2-(2-methylpyrrolidin-1-yl)ethyl]-5,6,7,8-tetrahydro[1]benzothieno[2,3-d]pyrimidin-4-amine]	> 5.30	> 4.30
Cc1ccc(Oc2ccc(Nc3ncnc4sc5c(c34)CCC(CCN3C(C)CCC3C)C5)cc2C)cn1 (centres unmarked) [Example 235]	> 5.30	> 4.30
Cc1ccc(Oc2ccc(Nc3ncnc4sc5c(c34)CCC(CCN3CCCCC3)C5)cc2C)cn1 (centres unmarked) [Example 236, N-{3-methyl-4-[(6-methylpyridin-3-yl)oxy]phenyl}-7-(2-piperidin-1-ylethyl)-5,6,7,8-tetrahydro[1]benzothieno[2,3-d]pyrimidin-4-amine]	> 5.30	> 4.30
OC1CCN(CCC2CCc3c(sc4ncnc(Nc5ccc6c(cnn6Cc6ccccc6)c5)c34)C2)C1 (centres unmarked) [Example 237, 1-(2-{4-[(1-benzyl-1H-indazol-5-yl)amino]-5,6,7,8-tetrahydro[1]benzothieno[2,3-d]pyrimidin-7-yl}ethyl)pyrrolidin-3-ol]	> 5.30	> 4.30
CC1CCCN1CCC1CCc2c(sc3ncnc(Nc4ccc5c(cnn5Cc5ccccc5)c4)c23)C1 (centres unmarked) [Example 238, N-(1-benzyl-1H-indazol-5-yl)-7-[2-(2-methylpyrrolidin-1-yl)ethyl]-5,6,7,8-tetrahydro[1]benzothieno[2,3-d]pyrimidin-4-amine]	> 5.30	> 4.30
c1ccc(Cn2ncc3cc(Nc4ncnc5sc6c(c45)CCC(CCN4CCCCC4)C6)ccc32)cc1 (centres unmarked) [Example 239, (1-Benzyl-1H-indazol-5-yl)-[7-(2-piperidine-1-yl-ethyl)-5,6,7,8-tetrahydro-benzo[4,5]thieno[2,3-d]pyrimidin-4-yl]-amine]	> 5.30	> 4.30
